Measurements reported in patent US7732435B2, “Chromone derivatives useful as antagonists of VR1 receptors” (Novartis AG, priority 2005, dated 2010).
Like-named read-outs stand apart in the source and are kept apart here.

Target: TRPV1 receptor (UniProt Q8NER1)
Test: Calcium mobilisation assay in CHO-K1 cells expressing the TRPV1 receptor (inhibition of capsaicin or low pH activation)
Format: cell-based, human, rat or guinea pig
Conditions: species not specified
Protocol: Chinese Hamster Ovary-K1 (CHO-K1) cells, transfected to express either the human, rat or guinea pig TRPV1 receptor, were grown in Minimal Essential Media (MEM) alpha medium without nucleosides supplemented with fetal calf serum (10%), 2 mM L-glutamine, 100 IU/mL penicillin, 100 μg/ml streptomycin and 350-700 μg/ml geneticin. All reagents were supplied by Invitrogen. Cells were grown in T-175 flasks or Costar black, clear-bottomed 96-well view plates and maintained at 37° C. in a 90% humidified incubator with an atmosphere of 5% CO2 and 95% air. The cells were passaged twice a week at a ratio of 1:10 to 1:20 to maintain steady growth. For experimentation, cells were harvested at approximately 80% confluency and plated onto view plates at 40,000 cells per well in 100 μL media and grown overnight.
Calcium Mobilisation Assay […]

IC50 (TRPV1 stimulated by capsaicin at EC80 concentration, read-out: IC50 (capsacin)): 68 nM
IC50 (TRPV1 stimulated by low pH, final pH 5.5, read-out: IC50 (pH 5.5)): 54 nM
SMILES: CC(C)c1oc2c(ccc3[nH]c(C(C)(F)F)nc32)c(=O)c1-c1ccc(Cl)cc1 [Example 8, 7-(4-Chlorophenyl)-2-(1,1-difluoroethyl)-8-isopropyl-3H-chromeno[7,8-d]imidazol-6-one]
